Assay type in all cases: cell-based
For assay [1], the target named is KDR (Homo sapiens, UniProt P35968). Put plainly: KDR autophosphorylation ELISA in HUVEC cells. Set-up: endogenous in cells; host or cells: HUVEC (Lonza #C2519A). The conditions noted are these: Table 3 Cellular Activities, VEGF165-stimulated, phospho-KDR ELISA. The protocol:
Human umbilical vein endothelial cells or HUVEC (Lonza #C2519A) were seeded at 2×10^4 cells/well onto 96-well plates (Corning #3904), in EGM-2 growth medium (Lonza #CC-3162) containing 1% Penicillin Streptomycin (Thermo Fisher #15140-122). HUVEC cells were incubated at 37° C., 5% CO2 for 24 h and then starved for 24 h in serum-free EBM-2 basal medium (Lonza #CC-3156) containing 1% Penicillin Streptomycin. Test compounds were serially diluted to produce an 8-point dose curve in fresh serum-free medium to a final concentration of 0.3% DMSO (vehicle) and added to the cells and incubated for 1 h. Cells were then stimulated with 100 ng/mL recombinant human VEGF165 (R&D Systems #293-VE-500) for 5 min, washed with cold PBS, and immediately lysed with 130 μL of cold 1× lysis buffer [20 mM Tris, 137 mM sodium chloride, 2 mM EDTA, 10% glycerol, 1% NP-40 alternative, 1 mM activated sodium orthovanadate, 1 mM PefaBloc SC (Sigma-Aldrich #11429868001), protease/phosphatase inhibitor tablet (Thermo Fisher #A32959)]. Lysates were collected and 100 μL/well added into the human phospho-KDR DuoSet IC ELISA (R&D Systems #DYC1766-2). Assay was performed according to manufacturer's instructions and sample phospho-KDR concentrations were extrapolated using human phospho-KDR control (R&D Systems #841421) as a standard. Positive control wells (100% activity) contained VEGF165-stimulated, DMSO-treated cell lysates. Negative control wells (0% activity) contained non-stimulated cell lysates. IC50 values were calculated by nonlinear regression analysis using a 4-parameter logistic curve fit in ActivityBase XE (IDBS).

Assay [2] concerns the target T1, Mer (Homo sapiens, UniProt Q12866).
T1 construct: host or cells: 293A cells (Thermo Fisher #R70507)
T1 sequence (Q12866 21-999): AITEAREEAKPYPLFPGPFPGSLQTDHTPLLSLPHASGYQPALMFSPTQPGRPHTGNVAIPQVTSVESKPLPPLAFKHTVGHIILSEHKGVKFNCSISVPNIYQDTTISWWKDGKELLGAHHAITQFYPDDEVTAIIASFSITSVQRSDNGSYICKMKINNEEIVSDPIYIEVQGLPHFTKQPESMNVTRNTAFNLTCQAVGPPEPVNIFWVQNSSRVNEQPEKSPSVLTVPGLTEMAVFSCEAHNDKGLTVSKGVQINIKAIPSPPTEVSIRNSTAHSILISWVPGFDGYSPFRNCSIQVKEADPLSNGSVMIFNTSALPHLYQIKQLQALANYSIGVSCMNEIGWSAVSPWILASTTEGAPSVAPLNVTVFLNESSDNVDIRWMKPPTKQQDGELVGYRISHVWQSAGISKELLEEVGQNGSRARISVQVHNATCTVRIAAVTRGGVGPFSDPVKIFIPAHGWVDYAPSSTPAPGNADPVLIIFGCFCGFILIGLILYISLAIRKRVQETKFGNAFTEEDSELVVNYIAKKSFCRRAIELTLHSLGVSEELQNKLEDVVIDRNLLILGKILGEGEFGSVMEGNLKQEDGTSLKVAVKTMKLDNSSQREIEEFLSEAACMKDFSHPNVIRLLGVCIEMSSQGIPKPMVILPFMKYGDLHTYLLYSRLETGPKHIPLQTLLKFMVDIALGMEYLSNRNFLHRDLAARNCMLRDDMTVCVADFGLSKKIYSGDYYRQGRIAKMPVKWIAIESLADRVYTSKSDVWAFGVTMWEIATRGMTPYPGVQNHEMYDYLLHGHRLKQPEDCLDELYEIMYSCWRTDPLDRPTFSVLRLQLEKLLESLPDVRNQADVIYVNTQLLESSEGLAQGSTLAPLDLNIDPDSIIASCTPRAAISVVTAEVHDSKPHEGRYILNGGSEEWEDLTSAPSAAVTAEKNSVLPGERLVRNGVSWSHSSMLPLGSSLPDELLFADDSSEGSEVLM
Description: Mer autophosphorylation ELISA in transient transfected 293A cells. Conditions: Table 3 Cellular Activities; MERTK-transfected 293A cells, phospho-Mer ELISA. The protocol:
293A cells (Thermo Fisher #R70507) were seeded at 1.5×10^6 cells/well onto 100 mm dish (Greiner #664169), in DMEM (Thermo Fisher #11995-040) containing 10% FBS (Thermo Fisher #26140-079), 1% MEM NEAA (Thermo Fisher #11140-050), 1% GlutaMax (Thermo Fisher #35050-061), and 1% Penicillin Streptomycin (Thermo Fisher #15140-122). 293A cells were incubated at 37° C., 5% CO2 for 24 h and then transfected with 6μg MERTK DNA (Genecopoeia #EX-Z8208-M02) using TransIT LT1 transfection reagent (Mirus-Bio #MIR2305). After 24 h incubation, the transfected 293A cells were seeded at 1×10^5 cells/well onto 96-well plates (Corning #3904) in DMEM growth medium overnight. Test compounds were serially diluted to produce an 8-point dose curve in fresh serum-free medium to a final concentration of 0.3% DMSO (vehicle) and added to the cells and incubated for 1 h. Cells were then immediately lysed with 150 μL of cold 1× lysis buffer […], 137 mM sodium chloride, 2 mM EDTA, 10% glycerol, 1% NP-40 alternative, 1 mM activated sodium orthovanadate, 1 mM PefaBloc SC (Sigma-Aldrich #11429868001), protease/phosphatase inhibitor tablet (Thermo Fisher #A32959)]. Lysates were clarified by centrifugation and 50 μL/well added into the human phospho-Mer DuoSet IC ELISA (R&D Systems #DYC2579-2). Assay was performed according to manufacturer's instructions and sample phospho-Mer concentrations were extrapolated using human phospho-Mer control (R&D Systems #841793) as a standard. Positive control wells (100% activity) contained DMSO-treated cell lysates. Negative control wells (0% activity) contained reference inhibitor-treated cell lysates. IC50 values were calculated by nonlinear regression analysis using a 4-parameter logistic curve fit in ActivityBase XE (IDBS).
On the technique in general: ELISA stands for enzyme-linked immunosorbent assay.

Assay [3] addresses Met (Homo sapiens, UniProt P08581). Put plainly: Met autophosphorylation ELISA in PC-3 cells. Details: endogenous in cells; host or cells: PC-3 prostate cancer cells (ATCC #CRL-1435). Conditions: Table 3 Cellular Activities, HGF-stimulated, phospho-Met ELISA, read-out: c-Met IC50. As to the method:
PC-3 prostate cancer cells (ATCC #CRL-1435) were seeded at 4×10^4 cells/well onto 24-well plates (Greiner #662165), in DMEM (Thermo Fisher #11995-040) containing 10% FBS (Thermo Fisher #26140-079), 1% MEM NEAA (Thermo Fisher #11140-050), 1% GlutaMax (Thermo Fisher #35050-061), and 1% Penicillin Streptomycin (Thermo Fisher #15140-122). PC-3 cells were incubated at 37° C., 5% CO2 for 24 h and then starved for 3 h in serum-free medium. Test compounds were serially diluted to produce an 8-point dose curve in fresh serum-free medium to a final concentration of 0.3% DMSO (vehicle) and added to the cells and incubated for 1 h. Cells were then stimulated with 100 ng/mL recombinant human HGF (R&D Systems #294-HG-250) for 10 min, washed with cold PBS, and immediately lysed with 130 μL of cold 1× lysis buffer [20 mM Tris, 137 mM sodium chloride, 2 mM EDTA, 10% glycerol, 1% NP-40 alternative, 1 mM activated sodium orthovanadate, 1 mM PefaBloc SC (Sigma-Aldrich #11429868001), protease/phosphatase inhibitor tablet (Thermo Fisher #A32959)]. Lysates were clarified by centrifugation and 100 μL/well added into the PathScan phospho-Met (panTyr) Sandwich ELISA (Cell Signaling Technology #7333). Assay was performed according to manufacturer's instructions. Positive control wells (100% activity) contained HGF-stimulated, DMSO-treated cell lysates. Negative control wells (0% activity) contained HGF-stimulated, reference inhibitor-treated cell lysates. IC50 values were calculated by nonlinear regression analysis using a 4-parameter logistic curve fit in ActivityBase XE (IDBS).

pIC50: −log10 of the molar value.

Chain of Met (P08581 25-1390): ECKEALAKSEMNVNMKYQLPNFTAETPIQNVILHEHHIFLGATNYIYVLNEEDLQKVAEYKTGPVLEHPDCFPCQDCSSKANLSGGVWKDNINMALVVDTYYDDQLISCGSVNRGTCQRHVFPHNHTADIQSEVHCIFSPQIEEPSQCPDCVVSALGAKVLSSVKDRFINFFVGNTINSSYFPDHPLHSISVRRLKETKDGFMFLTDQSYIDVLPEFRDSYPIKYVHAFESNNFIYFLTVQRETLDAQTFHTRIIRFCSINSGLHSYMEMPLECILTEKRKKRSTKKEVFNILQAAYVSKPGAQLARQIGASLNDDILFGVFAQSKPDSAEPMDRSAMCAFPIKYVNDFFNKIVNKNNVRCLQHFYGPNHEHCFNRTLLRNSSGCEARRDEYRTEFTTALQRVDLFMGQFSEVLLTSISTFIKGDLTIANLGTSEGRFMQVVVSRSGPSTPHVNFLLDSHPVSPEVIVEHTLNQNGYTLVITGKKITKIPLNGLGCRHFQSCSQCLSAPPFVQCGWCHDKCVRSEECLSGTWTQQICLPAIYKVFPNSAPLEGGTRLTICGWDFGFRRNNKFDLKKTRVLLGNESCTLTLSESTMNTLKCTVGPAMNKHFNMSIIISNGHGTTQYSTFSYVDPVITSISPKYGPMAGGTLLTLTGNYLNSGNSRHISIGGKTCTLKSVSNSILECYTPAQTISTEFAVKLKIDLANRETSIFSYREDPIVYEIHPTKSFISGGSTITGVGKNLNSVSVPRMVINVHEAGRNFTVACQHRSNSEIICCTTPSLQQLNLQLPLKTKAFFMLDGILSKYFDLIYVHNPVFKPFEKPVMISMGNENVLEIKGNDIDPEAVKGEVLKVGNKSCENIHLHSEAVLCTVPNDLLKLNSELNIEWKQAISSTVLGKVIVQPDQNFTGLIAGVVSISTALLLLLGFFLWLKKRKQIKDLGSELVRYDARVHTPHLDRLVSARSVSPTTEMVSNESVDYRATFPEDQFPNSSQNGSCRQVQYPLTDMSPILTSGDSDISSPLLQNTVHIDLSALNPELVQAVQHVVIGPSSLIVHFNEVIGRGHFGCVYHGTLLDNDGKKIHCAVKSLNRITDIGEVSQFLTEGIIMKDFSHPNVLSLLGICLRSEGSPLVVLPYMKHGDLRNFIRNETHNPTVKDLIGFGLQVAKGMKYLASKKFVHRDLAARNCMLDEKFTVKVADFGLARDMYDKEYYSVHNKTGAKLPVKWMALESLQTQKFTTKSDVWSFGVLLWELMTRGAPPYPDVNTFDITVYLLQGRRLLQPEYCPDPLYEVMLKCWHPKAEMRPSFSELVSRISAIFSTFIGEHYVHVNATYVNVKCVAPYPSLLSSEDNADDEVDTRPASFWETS
Chain of KDR (P35968 20-1356): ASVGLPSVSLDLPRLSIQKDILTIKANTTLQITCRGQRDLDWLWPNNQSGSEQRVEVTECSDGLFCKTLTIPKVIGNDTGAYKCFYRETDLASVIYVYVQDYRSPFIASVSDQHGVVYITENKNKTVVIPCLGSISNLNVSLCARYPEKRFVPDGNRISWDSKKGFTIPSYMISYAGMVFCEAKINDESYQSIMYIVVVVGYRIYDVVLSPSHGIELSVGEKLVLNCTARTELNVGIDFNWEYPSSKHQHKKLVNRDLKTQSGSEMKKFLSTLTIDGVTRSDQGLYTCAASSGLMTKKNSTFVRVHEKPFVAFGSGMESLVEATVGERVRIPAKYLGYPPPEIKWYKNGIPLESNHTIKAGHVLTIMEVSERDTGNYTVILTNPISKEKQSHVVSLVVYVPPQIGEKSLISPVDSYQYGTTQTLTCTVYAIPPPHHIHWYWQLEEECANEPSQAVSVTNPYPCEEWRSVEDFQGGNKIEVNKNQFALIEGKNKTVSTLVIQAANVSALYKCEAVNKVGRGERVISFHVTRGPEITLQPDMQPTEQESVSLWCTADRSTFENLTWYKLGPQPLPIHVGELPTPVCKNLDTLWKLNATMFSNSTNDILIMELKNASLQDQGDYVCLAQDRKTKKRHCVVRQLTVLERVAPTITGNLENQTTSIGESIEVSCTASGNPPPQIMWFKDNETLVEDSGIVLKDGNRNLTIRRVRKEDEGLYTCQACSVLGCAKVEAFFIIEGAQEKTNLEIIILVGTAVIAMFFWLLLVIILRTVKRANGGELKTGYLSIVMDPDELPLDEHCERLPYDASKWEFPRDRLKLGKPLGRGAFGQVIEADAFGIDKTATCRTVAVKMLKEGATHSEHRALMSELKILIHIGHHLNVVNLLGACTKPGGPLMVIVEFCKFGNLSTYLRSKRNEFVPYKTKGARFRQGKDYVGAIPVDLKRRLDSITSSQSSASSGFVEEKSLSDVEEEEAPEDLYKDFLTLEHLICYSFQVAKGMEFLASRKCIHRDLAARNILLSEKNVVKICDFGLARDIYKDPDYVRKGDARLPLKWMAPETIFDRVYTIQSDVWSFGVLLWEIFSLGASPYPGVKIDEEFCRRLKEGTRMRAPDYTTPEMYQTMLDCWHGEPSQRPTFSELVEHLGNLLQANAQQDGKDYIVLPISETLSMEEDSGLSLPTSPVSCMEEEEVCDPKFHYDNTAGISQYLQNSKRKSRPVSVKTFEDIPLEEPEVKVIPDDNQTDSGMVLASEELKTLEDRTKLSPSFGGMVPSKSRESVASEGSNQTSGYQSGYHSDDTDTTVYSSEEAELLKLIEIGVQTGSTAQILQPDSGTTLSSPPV

In the case of `CCc1c(C(=O)Nc2ccc(Oc3ccnc4cc(OCCOC)c(OC)nc34)c(F)c2)c(=O)c(-c2ccco2)c(C)n1C` [Compound 326, 2-Ethyl-N-[3-fluoro-4-[[6-methoxy-7-(2-methoxyethoxy)-1,5-naphthyridin-4-yl]oxy]phenyl]-5-(furan-2-yl)-1,6-dimethyl-4-oxopyridine-3-carboxamide], the pIC50 in assay [1], in assay [2] and in assay [3] was at least 7.00 throughout.

Regarding `COc1cnc2c(Oc3ccc(NC(=O)c4c(C)n(C)c(C)c(-c5ccco5)c4=O)cc3)ccnc2c1` [Compound 161, 5-(Furan-2-yl)-N-[4-[(7-methoxy-1,5-naphthyridin-4-yl)oxy]phenyl]-1,2,6-trimethyl-4-oxopyridine-3-carboxamide], the pIC50 (in general, the negative decadic logarithm of the IC50, by convention in mol/L) is 6.00 to 6.52 in assay [1], at least 7.00 in assay [2] and at least 7.00 in assay [3].

As to `COc1cc2nccc(Oc3ccc(NC(=O)c4cc(C(C)=O)c(C)n(-c5ccoc5)c4=O)cc3)c2nc1OC` [Compound 239, 5-Acetyl-N-[4-[(6,7-dimethoxy-1,5-naphthyridin-4-yl)oxy]phenyl]-1-(furan-3-yl)-6-methyl-2-oxopyridine-3-carboxamide], the pIC50 in assay [1], in assay [2] and in assay [3] was 6.00 to 6.52 in each case.

Take `COCc1nc(C)c(-c2ncccc2C)c(O)c1C(=O)Nc1ccc(Oc2ccnc3cc(OC)c(OC)nc23)c(F)c1` [Compound 196, N-[4-[(6,7-Dimethoxy-1,5-naphthyridin-4-yl)oxy]-3-fluorophenyl]-4-hydroxy-2-(methoxymethyl)-6-methyl-5-(3-methylpyridin-2-yl)pyridine-3-carboxamide]: the pIC50 in assay [1], in assay [2] and in assay [3] was at least 7.00 throughout.

Consider `COCCOc1cnc2c(Oc3ccc(NC(=O)c4c(C)n(C)c(C)c(-c5ccco5)c4=O)cc3F)ccnc2c1` [Compound 266, N-[3-Fluoro-4-[[7-(2-methoxyethoxy)-1,5-naphthyridin-4-yl]oxy]phenyl]-5-(furan-2-yl)-1,2,6-trimethyl-4-oxopyridine-3-carboxamide], for which the figures for the negative-log IC50 (pIC50) in assay [1], in assay [2] and in assay [3] were 6.00 to 6.52, at least 7.00 and at least 7.00, respectively.

Regarding `COc1cc2nccc(Oc3ccc(NC(=O)c4c5n(cc(-c6ccsc6)c4=O)CCOC5)cc3)c2nc1OC` [Compound 301, N-[4-[(6,7-Dimethoxy-1,5-naphthyridin-4-yl)oxy]phenyl]-8-oxo-7-thiophen-3-yl-3,4-dihydro-1H-pyrido[2,1-c][1,4]oxazine-9-carboxamide], the negative logarithm of the IC50 (pIC50) is 6.00 to 6.52 in assay [1], at least 7.00 in assay [2] and at least 7.00 in assay [3].

Regarding `COc1cc2nccc(Oc3ccc(NC(=O)c4c5n(cc(-c6ccsc6)c4=O)CCOC5)cc3F)c2nc1OC` [Compound 300, N-[4-[(6,7-Dimethoxy-1,5-naphthyridin-4-yl)oxy]-3-fluorophenyl]-8-oxo-7-thiophen-3-yl-3,4-dihydro-1H-pyrido[2,1-c][1,4]oxazine-9-carboxamide], the pIC50 is 6.52 to 7.00 in assay [1], at least 7.00 in assay [2] and at least 7.00 in assay [3].

For the compound `COCc1nc(C)c(-c2ccnc(C)c2)c(O)c1C(=O)Nc1ccc(Oc2ccnc3cc(OC)c(OC)nc23)c(F)c1` [Compound 198, N-[4-[(6,7-Dimethoxy-1,5-naphthyridin-4-yl)oxy]-3-fluorophenyl]-4-hydroxy-2-(methoxymethyl)-6-methyl-5-(2-methylpyridin-4-yl)pyridine-3-carboxamide], the negative-log IC50 (pIC50) in assay [1], in assay [2] and in assay [3] was at least 7.00 throughout.

On to `COc1cc2nccc(Oc3ccc(NC(=O)c4c5n(c(C)c(-c6ccoc6)c4=O)CCOC5)cc3F)c2nc1OC` [Compound 308, N-[4-[(6,7-Dimethoxy-1,5-naphthyridin-4-yl)oxy]-3-fluorophenyl]-7-(furan-3-yl)-6-methyl-8-oxo-3,4-dihydro-1H-pyrido [2,1-c][1,4]oxazine-9-carboxamide], for which the pIC50 in assay [1] is 6.00 to 6.52; in assay [2] it was at least 7.00; in assay [3], at least 7.00.

Consider `CCc1c(C(=O)Nc2ccc(Oc3ccnc4cc(OC)c(OC)nc34)cc2)c(=O)c(-c2ccco2)c(C)n1C` [Compound 325, N-[4-[(6,7-Dimethoxy-1,5-naphthyridin-4-yl)oxy]phenyl]-2-ethyl-5-(furan-2-yl)-1,6-dimethyl-4-oxopyridine-3-carboxamide], for which the pIC50 was 6.00 to 6.52 in assay [1], at least 7.00 in assay [2] and 6.00 to 6.52 in assay [3].

These data come from patent publication US20230151003A1, “COMPOUNDS AND METHODS OF USE” (Exelixis, Inc., priority 2020, published 2023).
